Data: US10159634B2, “Compositions and methods for inhibiting hair growth” (priority 2009, dated 2018)

Test system: C3H mice
Assay: Telogen Conversion Assay
Assay type: in vivo
Conditions: for Average Grades: average of 7 mice, visual grade 0 (pink skin) to 4 (full anagen), topical; for hair regrowth (regrowth score, FIG. 1): applied daily, week 3 and week 4, at the appropriate dose-level, compared to the control group; for hair growth (average grade): grades of 7 mice after 23 days, example written in present tense
Procedure: FP receptor antagonists are tested for their potential to […] using the Telogen Conversion Assay. The Telogen Conversion Assay measures the potential of a FP receptor antagonist to inhibit the conversion of mice in the resting stage of the hair growth cycle (“telogen”), to the growth stage of the hair growth cycle (“anagen”), and to assess the rate of anagen growth.
Without intending to be limited by theory, there are three principal phases of the hair growth cycle: anagen, catagen, and telogen. It is believed that there is a longer telogen period in C3H mice (Harlan Sprague Dawley, Inc., Indianapolis, Ind.) from approximately 40 days of age until about 75 days of age, when hair growth is synchronized. It is believed that after 75 days of age, hair growth is no longer synchronized. Wherein about 40 day-old mice with dark fur (brown or black) are used in hair growth experiments, melanogenesis occurs along with hair (fur) growth wherein the topical application of hair growth inducers is evaluated. The Telogen Conversion Assay herein is used to screen FP receptor antagonists for potential hair growth by measuring melanogenesis and/or inhibition of expected hair growth.
Three groups of 44 day-old C3H mice are used: a vehicle control group, a positive control group, and a test FP receptor antagonist group, wherein the test FP receptor antagonist group is administered a FP receptor antagonist F used in the method of this invention. The length of the assay is typically 24 days with 15 treatment days (wherein the treatment days occur Mondays through Fridays). Day 1 is the first day of treatment. Typical dosage concentrations are set forth in Table 1, however the skilled artisan will readily understand that such concentrations may be modified.
The mice are treated topically Monday through Friday on their lower back (base of tail to the lower rib). A pipette and tip are used to deliver 400 μl to each mouse's back. The 400 μL application is applied slowly while moving hair on the mouse to allow the application to reach the skin.
While each treatment is being applied to the mouse topically, a visual grade of from 0 to 4 will be given to the skin color in the application area of each animal. As a mouse converts from telogen to anagen, its skin color will become more bluish-black.

Row | Compound | Average Grades (23 Days) | Average Grades (25 Days) | Average Grades (26 Days) | hair regrowth (regrowth score, FIG. 1) | hair growth (average grade)
1 | O=C(O)CCC/C=C\CC1C(/C=C/[C@H](O)C2Cc3ccccc3C2)[C@@H](F)C[C@@H]1O (stereo partly drawn) [Example 1] | 0.4 | 0.1 | 0.7 |  | 
2 | COC(=O)CCC/C=C\CC1C(/C=C/[C@H](O)C2Cc3ccccc3C2)[C@@H](F)C[C@@H]1O (stereo partly drawn) [Example 2] | 0.1 |  |  | inhibited hair regrowth | 
3 | O=C(N[C@H](c1ccccc1)c1ccccn1)[C@@H]1SCCN1S(=O)(=O)c1ccc(-c2ccccc2)cc1 [Example 3] |  |  |  | inhibited hair regrowth | significantly reduces hair growth
4 | CC(C)OC(=O)CCC/C=C\CC1C(/C=C/[C@H](O)C2Cc3ccccc3C2)[C@@H](F)C[C@@H]1O (stereo partly drawn) [Example 4] |  |  |  |  | significantly reduces hair growth
5 | Ile-Leu-Gly-His-(citrulline)-Asp-Tyr-Lys [Example 5] |  |  |  |  | significantly reduces hair growth
